# Data reported in PMC10720538, “Population pharmacokinetic modeling and target attainment analyses of rezafungin for the treatment of candidemia and invasive candidiasis” (Antimicrobial Agents and Chemotherapy, 2023).
# Like-named read-outs stand apart in the source and are kept apart here. *1 amine or outer side, *2 acyl side, *3 side chain or, on linkers, in order; H or OH if unused. Where a SMILES comes first, the peptide text is derived from it. Bridges are numbered along the chain shown (N, C = ends). [ ]: non-standard residue; d: D form. The star is where a group is joined. Orn(4R-OH,5R-OCH2CH2NMe3+) = C[N+](C)(C)CCO[C@@H](N[*:3])[C@H](O)C[C@H](N[*:1])C(=O)[*:2]; pTerphenylCO(4''-OnC5H11) = CCCCCOc1ccc(-c2ccc(-c3ccc(C(=O)*)cc3)cc2)cc1; hTyr(3S-OH,4S-OH) = N[C@H](C(=O)O)[C@H](O)[C@@H](O)c1ccc(O)cc1; Pro(3S-OH,4S-Me) = C[C@H]1CN[C@H](C(=O)O)[C@H]1O; Hyp = O=C(O)[C@@H]1C[C@@H](O)CN1
# Assays:
# [1] = Population pharmacokinetic model of rezafungin (three-compartment, NONMEM) from plasma concentrations of Phase 1, 2 and 3 studies; format: in vivo, human
# Protocol: Data from single- and multiple-dose studies in healthy volunteers and patients, with doses ranging from 50 to 1,400 mg, were included in the PK analysis. All doses of rezafungin were administered via IV infusion. The PK data set consisted of a total of 2,512 rezafungin concentration records from 277 subjects, of which five records were identified as below the lower limit of quantitation postdose and five other records were identified as above 50 µg/mL, which was the upper limit of quantitation. Those records together represent less than 0.5% of the observed concentrations and were excluded from the analysis.
# Starting from the previously developed four-compartment PK model ([13]), structurally simpler two- and three-compartment models with IIV in various parameters were developed and compared. During the initial modeling exercise, eight additional records were identified as outliers using conditional weighted residuals greater than 5 or smaller than −5 as a criterion and were excluded from model development. […] The two other compartments were considered peripheral distribution compartments (V2 and V3). When IIVs in V2 and V3 were included in the model, it was recognized that the individual IIVs on V2 and V3 were highly correlated, and, in addition, the typical estimates of V2 and V3 were very similar. Therefore, a model with a shared IIV term and with a single shared parameter for V2 and V3 [peripheral volume (V23)] was tested. […] The estimation of a four-compartment model achieved a moderate improvement in the value of the objective function (VOF) (a decrease of 49 points). However, there was no discernible improvement in the goodness-of-fit model diagnostics, and the residual error was nearly identical. Therefore, the three-compartment structural model was considered to adequately describe the PK of rezafungin without overparameterization. The inclusion of IIV terms was tested on various PK parameters, including clearance (CL), central volume of distribution (V1), V23, intercompartmental clearance 1 (Q2), and intercompartmental clearance 2 (Q3). Interindividual variability terms on CL, V1, and V23 were sufficient to achieve good individual predictions. For the residual variability (RV), the constant coefficient of variation (CCV) and combined additive and proportional error models were tested.
# The final PK model of rezafungin is a three-compartment model with first-order elimination, characterized by the parameters CL, V1, V23, Q2, and Q3. The variability model included IIV in V1, V23, and CL, their covariances, and a proportional RV model (Table 2). All fixed and random effect parameters, including those of the covariance terms, were estimated with reasonable precision (<39%RSE). The magnitudes of the IIV parameters were moderate for all parameters: 30.5 coefficient of variation expressed as a percent (%CV) for CL, 37.6%CV for V1, and 29.3%CV for V23. Eta shrinkage was low for all parameters (<11%), and the residual error was also low (9.74%CV).
# Data were obtained from five Phase 1 studies (CD101.IV.1.01, CD101.IV.1.02, CD101.IV.1.06, CD101.IV.1.07, and CD101.IV.1.15), a Phase 2 study (CD101.IV.2.03; STRIVE), and a Phase 3 study (CD101.IV.3.05; ReSTORE) (Table S1). All study participants met the inclusion and exclusion criteria for the study in which they were enrolled. All clinical studies were conducted in compliance with International Council for Harmonisation guidelines on Good Clinical Practice.
# Dosing regimens for rezafungin are described in Table S1. Data from both single- and multiple-dose studies, with doses ranging from 50 to 1,400 mg, were included in this analysis. All doses of rezafungin were administered via IV infusion.
# Dense PK samples were collected in the Phase 1 studies, and a mixture of dense and sparse PK samples were collected in the Phase 2 and Phase 3 studies. […]
# [2] = cited from earlier work
# Protocol: FIG 4 Probability of pharmacokinetic/pharmacodynamic target attainment for 400 mg rezafungin against Candida species using CLSI methodology. f, free. TEXT PRINTED IN THE PICTURE: no label printed: Candida albicans − fAUC/MIC Targets: CLSI Target: Stasis 20.5; Candida albicans − fAUC/MIC Targets: CLSI Target: 1-Log Drop in CFU 37.2; Candida glabrata − fAUC/MIC Targets: CLSI Target: Stasis 0.5; Candida glabrata − fAUC/MIC Targets: CLSI Target: 1-Log Drop in CFU 2.94; Candida parapsilosis − fAUC/MIC Targets: CLSI Target: Stasis 18.2; Candida auris − fAUC/MIC Targets: CLSI Target: Stasis 12.1; Can ... || It is noted that the target attainment (TA) methodology uses the simulated fAUC0–168h/MIC ratios; therefore, the value of plasma protein binding (PPB) influences this analysis. The free fraction of rezafungin used in the analysis was 2.6%, obtained from measuring PPB in plasma from healthy subjects. […] While there are still questions in the scientific community about how to verify information from the nonclinical model to support PK/PD-b ... || Using each simulated patient’s Bayesian PK parameters and dose amounts, simulations were performed to obtain plasma concentration profiles. […] For the purposes of target attainment analyses, AUC0–168h after the first dose was used (day 1). […]
# [3] = mouse plasma; cited from earlier work
# Protocol: Using each simulated patient’s Bayesian PK parameters and dose amounts, simulations were performed to obtain plasma concentration profiles. […] For the purposes of target attainment analyses, AUC0–168h after the first dose was used (day 1). Protein binding of 99.2% in mouse plasma and of 97.4% in human (presumed healthy) plasma has been reported ([34]).
# Candida parapsilosis = conditions: ref Lepak et al., 2018 (e02154-17), cited from earlier work
# Protocol: TABLE 4 Nonclinical pharmacokinetic/pharmacodynamic targets, by species^a^,^b^,^c | column: Method; Stasis / fAUC0–168h/MIC median || FIG 4 Probability of pharmacokinetic/pharmacodynamic target attainment for 400 mg rezafungin against Candida species using CLSI methodology. f, free. […] This has been observed for other echinocandins and appears to be limited to nonclinical testing as C. parapsilosis responds well clinically to echinocandin therapy despite the intrinsically elevated MICs of this species ([29]). It is believed that the C. parapsilosis strains utilized in the model (more than 80% of which were not suitable) are highly fit or virulent and therefore may result in elevated targets ([30]).
# [4] = final population PK model, population mean
# [5] = final population PK model, population mean, covariate effect
compound,measurement,setting,value
"CCCCCOc1ccc(-c2ccc(-c3ccc(C(=O)N[C@H]4C[C@@H](O)[C@@H](OCC[N+](C)(C)C)NC(=O)[C@@H]5[C@@H](O)[C@@H](C)CN5C(=O)[C@H]([C@@H](C)O)NC(=O)[C@H]([C@H](O)[C@@H](O)c5ccc(O)cc5)NC(=O)[C@@H]5C[C@@H](O)CN5C(=O)[C@H]([C@@H](C)O)NC4=O)cc3)cc2)cc1 [rezafungin] ({pTerphenylCO(4''-OnC5H11)}-[Orn(4R-OH,5R-OCH2CH2NMe3+)]T[Hyp][hTyr(3S-OH,4S-OH)]T[Pro(3S-OH,4S-Me)]; lactam 1-C)",CL,"[1]; BSA 1.3 m^2, based on the final model estimates",0.235 L/h
same,CL,"[1]; BSA 2.6 m^2, based on the final model estimates",0.433 L/h
same,lower CL in healthy subjects than infected subjects or those with hepatic impairment,[1]; final model estimates,27.6%
same,"Q2, Distribution clearance 1",[1]; [4],0.236 L/h
same,"Q3, Distribution clearance 2",[1]; [4],12.4 L/h
same,"V23, Peripheral volume 1 and 2","[1]; final population PK model, population mean, BSA 1.9 m^2, ALB 3.2 g/dL",19.1 L
same,"CL, Central clearance","[1]; final population PK model, population mean, IV infusion, 277 subjects, typical value for disease state, BSA 1.9 m^2",0.328 L/h
same,Exponent of (BSA/1.9) for V1,[1]; [5],1.56
same,Exponent of (BSA/1.9) for V23,[1]; [5],1.17
same,"V1, Central volume","[1]; final population PK model, population mean, typical value for disease state, BSA 1.9 m^2",17.7 L
same,Protein binding,[2]; human (presumed healthy) plasma,97.4%
same,free fraction,"[2]; plasma from healthy subjects, used to calculate fAUC0–168h",2.6%
same,Protein binding,[3],99.2%
same,"Stasis, fAUC0–168h/MIC median","Candida parapsilosis; CLSI MIC, net fungal stasis, neutropenic mouse",18.2
same,maximum effect,Candida parapsilosis; nonclinical model,only achieved stasis
